The source of these data is patent US20250034216A1, “STEREOSELECTIVE COVALENT LIGANDS FOR ONCOGENIC AND IMMUNOLOGICAL PROTEINS” (The Scripps Research Institute, priority 2021, published 2025).

For the assay, the target named is T1, CDKN2AIP_C516 (Homo sapiens, UniProt Q9NXV6).
T1 construct: endogenous in cells; host or cells: 22Rv1
T1 sequence (Q9NXV6 1-580): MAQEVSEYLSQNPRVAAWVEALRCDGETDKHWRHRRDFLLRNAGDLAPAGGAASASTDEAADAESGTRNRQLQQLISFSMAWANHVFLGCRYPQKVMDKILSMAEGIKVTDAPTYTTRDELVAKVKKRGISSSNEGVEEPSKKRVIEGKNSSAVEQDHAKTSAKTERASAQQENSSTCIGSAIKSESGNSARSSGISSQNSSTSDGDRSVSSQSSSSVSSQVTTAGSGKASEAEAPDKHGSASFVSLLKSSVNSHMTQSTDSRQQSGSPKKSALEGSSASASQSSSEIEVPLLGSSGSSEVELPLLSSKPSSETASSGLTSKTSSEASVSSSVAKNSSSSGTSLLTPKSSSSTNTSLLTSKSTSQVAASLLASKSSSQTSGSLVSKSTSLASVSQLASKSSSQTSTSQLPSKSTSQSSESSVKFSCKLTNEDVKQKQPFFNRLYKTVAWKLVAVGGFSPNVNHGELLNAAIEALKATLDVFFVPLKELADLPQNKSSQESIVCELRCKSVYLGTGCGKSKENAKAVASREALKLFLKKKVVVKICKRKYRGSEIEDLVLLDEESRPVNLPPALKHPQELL
Nature of the assay: IA-DTB cysteine engagement. Type of assay: binding. Particulars: 22Rv1 cells, 20 μM probe, 1 h, relative to DMSO. Summed up: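 First, cells are exposed to electrophilic probes in situ. Next, lysates are labeled with IA-DTB (1 h, ambient temperature), reduced, alkylated and trypsin-digested. Then, IA-DTB peptides are enriched on streptavidin, TMT-labeled and analyzed, with ratios taken against DMSO channels.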

As to `C=CC(=O)N1C[C@@H](c2ccc(Br)cc2)[C@H]1C(=O)Nc1cccc2cccnc12` [MY-1A, (2S,3R)-1-acryloyl-3-(4-bromophenyl)-N-(quinolin-8-yl)azetidine-2-carboxamide], the “% engagement CDKN2AIP_C516” value is 66.5%.

With `C=CC(=O)N1C[C@H](c2ccc(Br)cc2)[C@@H]1C(=O)Nc1cccc2cccnc12` [MY-1B, (2R,3S)-1-acryloyl-3-(4-bromophenyl)-N-(quinolin-8-yl)azetidine-2-carboxamide], the “% engagement CDKN2AIP_C516” value amounted to 24%.

`C=CC(=O)N1C[C@H](c2ccc(Br)cc2)[C@H]1C(=O)Nc1cccc2cccnc12` [MY-3A, (2S,3S)-1-acryloyl-3-(4-bromophenyl)-N-(quinolin-8-yl)azetidine-2-carboxamide]: the “% engagement CDKN2AIP_C516” value is reported as 12.75%.

In the case of `C=CC(=O)N1C[C@H](c2ccc(Br)cc2)[C@H]1C(=O)Nc1cccc2cccnc12` [MY-3B, (2S,3S)-1-acryloyl-3-(4-bromophenyl)-N-(quinolin-8-yl)azetidine-2-carboxamide], the “% engagement CDKN2AIP_C516” value amounted to 18.75%.
